Measured values taken from patent publication EP4755888A1 (ILAb Co., Ltd., priority 2023, dated 2025).

Biological target: PD-1/PD-L1 (Homo sapiens, UniProt Q9NZQ7)
Assay: TR-FRET PD-1/PD-L1 binding inhibition at the molecular level (free proteins)
Settings: Tag1-PD-L1 and Tag2-PD-1 proteins, twelve concentrations from 200 nM, 2 hours at room temperature, read-out: FRET assay (IC50)
Outline: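 HTRF read-out at 665/620 nm after 2 h at room temperature. Detection used anti-Tag1 Eu cryptate plus anti-Tag2 XL665 antibodies. Tagged PD-L1 and PD-1 proteins were pre-mixed with compound across twelve […] 1:2 dilutions starting at 200 nM.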

Sequence of PD-1/PD-L1 (Q9NZQ7 19-238 limits assumed): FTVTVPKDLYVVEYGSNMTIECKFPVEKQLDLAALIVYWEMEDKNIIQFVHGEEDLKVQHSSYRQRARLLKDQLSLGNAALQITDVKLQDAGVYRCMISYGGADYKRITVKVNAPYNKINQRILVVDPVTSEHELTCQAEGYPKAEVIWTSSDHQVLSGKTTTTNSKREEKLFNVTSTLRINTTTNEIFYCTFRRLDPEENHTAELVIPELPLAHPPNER

| Structure (SMILES) | IC50 [nM] |
| --- | --- |
| O=C(Nc1cccc(-c2cccc(Nc3nc(C(F)(F)F)nc4cccnc34)c2Cl)c1Cl)c1cc2n(n1)CCC[C@@H]2N1CCC(O)CC1 [Compound 303, (S)-N-(2,2'-dichloro-3'-((2-(trifluoromethyl)pyrido[3,2-d]pyrimidin-4-yl)amino)-[1,1'-biphenyl]-3-yl)-4-(4-hydroxypiperidin-1-yl)-4,5,6,7-tetrahydropyrazolo[1,5-a]pyridine-2-carboxamide] | 10 to 100 |
| O=C(Nc1cccc(-c2cccc(Nc3nc(C(F)(F)F)nc4cccnc34)c2Cl)c1Cl)c1cc2n(n1)CCC[C@H]2N1CCC(O)CC1 [Compound 304, (R)-N-(2,2'-dichloro-3'-((2-(trifluoromethyl)pyrido[3,2-d]pyrimidin-4-yl)amino)-[1,1'-biphenyl]-3-yl)-4-(4-hydroxypiperidin-1-yl)-4,5,6,7-tetrahydropyrazolo[1,5-a]pyridine-2-carboxamide] | 10 to 100 |
| O=C(Nc1cccc(-c2cccc(Nc3nc(C(F)F)nc4cccnc34)c2Cl)c1Cl)c1cc2n(n1)CCC[C@@H]2N1CCC(O)CC1 [Compound 305, (S)-N-(2,2'-dichloro-3'-((2-(difluoromethyl)pyrido[3,2-d]pyrimidin-4-yl)amino)-[1,1'-biphenyl]-3-yl)-4-(4-hydroxypiperidin-1-yl)-4,5,6,7-tetrahydropyrazolo[1,5-a]pyridine-2-carboxamide] | 10 to 100 |
| Cn1c(C(=O)Nc2cccc(-c3cccc(NC(=O)c4cc5n(n4)CCC[C@@H]5N4CC[C@@H](C(=O)O)C4)c3Cl)c2Cl)nc2c1CCN(CCC13CCC(C(=O)O)(CC1)C3)C2 [Compound 307, (R)-1-((S)-2-((3'-(5-(2-(4-carboxybicyclo[2.2.1]heptan-1-yl)ethyl)-1-methyl-4,5,6,7-tetrahydro-1H-imidazo[4,5-c]pyridine-2-carboxamido)-2,2'-dichloro-[1,1'-biphenyl]-3-yl)carbamoyl)-4,5,6,7-tetrahydropyrazolo[1,5-a]pyridin-4-yl)pyrrolidine-3-carboxylic acid] | < 10 |
| Cn1c(C(=O)Nc2cccc(-c3cccc(NC(=O)c4cc5n(n4)CCC[C@H]5N4CC[C@@H](C(=O)O)C4)c3Cl)c2Cl)nc2c1CCN(CCC13CCC(C(=O)O)(CC1)C3)C2 [Compound 308, (R)-1-((R)-2-((3'-(5-(2-(4-carboxybicyclo[2.2.1]heptan-1-yl)ethyl)-1-methyl-4,5,6,7-tetrahydro-1H-imidazo[4,5-c]pyridine-2-carboxamido)-2,2'-dichloro-[1,1'-biphenyl]-3-yl)carbamoyl)-4,5,6,7-tetrahydropyrazolo[1,5-a]pyridin-4-yl)pyrrolidine-3-carboxylic acid] | < 10 |
| Cc1c(NC(=O)c2ccc(CN3CC[C@@H](O)C3)cn2)cccc1-c1cccc(NC(=O)c2cc3n(n2)CCC[C@@H]3N2CCCC[C@@H]2CO)c1C [Compound 309, (S)-4-((R)-2-(hydroxymethyl)piperidin-1-yl)-N-(3'-(5-(((R)-3-hydroxypyrrolidin-1-yl)methyl)picolinamido)-2,2'-dimethyl-[1,1'-biphenyl]-3-yl)-4,5,6,7-tetrahydropyrazolo[1,5-a]pyridine-2-carboxamide] | < 10 |
| Cc1c(NC(=O)c2ccc(CN3CC[C@@H](O)C3)cn2)cccc1-c1cccc(NC(=O)c2cc3n(n2)CCC[C@H]3N2CCCC[C@@H]2CO)c1C [Compound 309-1, (R)-4-((R)-2-(hydroxymethyl)piperidin-1-yl)-N-(3'-(5-(((R)-3-hydroxypyrrolidin-1-yl)methyl)picolinamido)-2,2'-dimethyl-[1,1'-biphenyl]-3-yl)-4,5,6,7-tetrahydropyrazolo[1,5-a]pyridine-2-carboxamide] | 10 to 100 |
| Cc1c(NC(=O)c2ccc(CN3CC[C@@H](O)C3)cn2)cccc1-c1cccc(NC(=O)c2cc3n(n2)CCC[C@@H]3N2CCC[C@@H]2CO)c1C [Compound 310, (S)-4-((R)-2-(hydroxymethyl)pyrrolidin-1-yl)-N-(3'-(5-(((R)-3-hydroxypyrrolidin-1-yl)methyl)picolinamido)-2,2'-dimethyl-[1,1'-biphenyl]-3-yl)-4,5,6,7-tetrahydropyrazolo[1,5-a]pyridine-2-carboxamide] | < 10 |
| Cc1c(NC(=O)c2ccc(CN3CC[C@@H](O)C3)cn2)cccc1-c1cccc(NC(=O)c2cc3n(n2)CCC[C@H]3N2CCC[C@@H]2CO)c1C [Compound 310-1] | < 10 |
| CN(C)[C@H]1CCCn2nc(C(=O)Nc3cccc(-c4cccc(NC(=O)c5cc6n(n5)CCC[C@@H]6N(C)C)c4Cl)c3Cl)cc21 [Compound 311, (4S,4'S)-N,N'-(2,2'-dichloro-[1,1'-biphenyl]-3,3'-diyl)bis(4-(dimethylamino)-4,5,6,7-tetrahydropyrazolo[1,5-a]pyridine-2-carboxamide)] | < 10 |
| CN[C@H]1CCCn2nc(C(=O)Nc3cccc(-c4cccc(NC(=O)c5cc6n(n5)CCC[C@@H]6NC)c4C)c3C)cc21 [Compound 312, (4S,4'S)-N,N'-(2,2'-dimethyl-[1,1'-biphenyl]-3,3'-diyl)bis(4-(methylamino)-4,5,6,7-tetrahydropyrazolo[1,5-a]pyridine-2-carboxamide)] | < 10 |
| CN(C)[C@H]1CCCn2nc(C(=O)Nc3cccc(-c4cccc(NC(=O)c5cc6n(n5)CCC[C@@H]6NCCO)c4Cl)c3Cl)cc21 [Compound 313, (S)-N-(2,2'-dichloro-3'-((S)-4-((2-hydroxyethyl)amino)-4,5,6,7-tetrahydropyrazolo[1,5-a]pyridine-2-carboxamido)-[1,1'-biphenyl]-3-yl)-4-(dimethylamino)-4,5,6,7-tetrahydropyrazolo[1,5-a]pyridine-2-carboxamide] | < 10 |
| CN(C)[C@H]1CCCn2nc(C(=O)Nc3cccc(-c4cccc(NC(=O)c5cc6n(n5)CCC[C@@H]6NCC(=O)O)c4Cl)c3Cl)cc21 [Compound 314, 2-(((S)-2-((2,2'-dichloro-3'-((S)-4-(dimethylamino)-4,5,6,7-tetrahydropyrazolo[1,5-a]pyridine-2-carboxamido)-[1,1'-biphenyl]-3-yl)carbamoyl)-4,5,6,7-tetrahydropyrazolo[1,5-a]pyridin-4-yl)amino)acetic acid] | < 10 |
| O=C(O)CN[C@H]1CCCn2nc(C(=O)Nc3cccc(-c4cccc(NC(=O)c5cc6n(n5)CCC[C@@H]6NCCO)c4Cl)c3Cl)cc21 [Compound 315, 2-(((S)-2-((2,2'-dichloro-3'-((S)-4-((2-hydroxyethyl)amino)-4,5,6,7-tetrahydropyrazolo[1,5-a]pyridine-2-carboxamido)-[1,1'-biphenyl]-3-yl)carbamoyl)-4,5,6,7-tetrahydropyrazolo[1,5-a]pyridin-4-yl)amino)acetic acid] | < 10 |
| O=C(Nc1cccc(-c2cccc(NC(=O)c3cc4n(n3)CCC[C@@H]4NCCO)c2Cl)c1Cl)c1cc2n(n1)CCC[C@@H]2NCCO [Compound 316, (4S,4'S)-N,N'-(2,2'-dichloro-[1,1'-biphenyl]-3,3'-diyl)bis(4-((2-hydroxyethyl)amino)-4,5,6,7-tetrahydropyrazolo[1,5-a]pyridine-2-carboxamide)] | < 10 |
| O=C(O)CN[C@H]1CCCn2nc(C(=O)Nc3cccc(-c4cccc(NC(=O)c5cc6n(n5)CCC[C@@H]6NCC(=O)O)c4Cl)c3Cl)cc21 [Compound 317, 2,2'-(((4S,4'S)-2,2'-(((2,2'-dichloro-[1,1'-biphenyl]-3,3'-diyl)bis(azanediyl))bis(carbonyl))bis(4,5,6,7-tetrahydropyrazolo[1,5-a]pyridine-4,2-diyl))bis(azanediyl))diacetic acid] | < 10 |
